Reference: patent publication US20100272797A1, “Pharmaceutical Composition for Treating Hepatitis C Virus Infection Comprising HMG-COA Reductase Inhibitor and Bile Acid” (HANALL PHARMACEUTICAL COMPANY, LTD., priority 2007, published 2010)

How the values were obtained:
[1] = in vivo, absorbed by passive diffusion; cited from earlier work
[2] = human, in vivo; cited from earlier work
EMC virus = experiment: Test Example 1: inhibitory effects on EMCV in A549 cells, MTT assay; assay type: cell-based; details: A549 cells infected with EMC virus, IFN 20 IU/ml, fluvastatin 5 μM, UDCA 61.9 μM as named

| Structure (SMILES) | absorbed drug excreted in the form of bile [1] | hepatitis patients with continuous increase in transaminase levels [2] | share of such patients with increase in blood transaminase levels within 12 weeks after administration [2] | transaminase level elevation relative to upper limit of normal [2] | Average (MTT absorbance) (EMC virus; absorbance 550-600 nm, N 10) | Survival rate (antivirus activity) (EMC virus; vehicle = 0.0) |
| --- | --- | --- | --- | --- | --- | --- |
| C[C@H](CCC(=O)O)[C@H]1CC[C@H]2[C@@H]3[C@@H](O)C[C@@H]4C[C@H](O)CC[C@]4(C)[C@H]3CC[C@]12C [ursodeoxycholic acid] | about 50% | – | – | – | – | – |
| CC(C)n1c(/C=C/C(O)CC(O)CC(=O)O)c(-c2ccc(F)cc2)c2ccccc21 (racemic) [Fluvastatin, [R,S-(E)]-(±)-7-[3-(4-fluorophenyl)-1-(1-methylethyl)-1H-indol-2-yl]-3,5-dihydroxy-6-heptanoate] | – | about 1.1% | At least 90% | at least 3 times the upper limit of normal | 0.8638 | 1.7 |
